Data as given in US9938316B2, “Selective inhibitors of α2 isoform of Na,K-ATPase and use thereof for reduction of intra-ocular pressure and as cardiotonic agents” (priority 2013, dated 2018).

What was measured:
cornea of rabbits = experiment: Pachymetry: corneal thickness and local toxicity after topical cardiac glycosides; assay type: in vivo, New Zealand white rabbits; details: rabbit, in vivo
Description: Thus, in this study, no change in corneal thickness was detected (Table 3), indicative of lack of local toxic effects. […] Similar results were obtained with CG's applied after IB-MECA.
IOP (mm Hg) of rabbits was measured using a calibrated Pneumatonometer (Model 30, Reichert technologies, FIG. 1). A local anesthetic Oxybuprocaine HCl (0.4%, 25 μl) was applied to each cornea about a minute before IOP measurements. Two baseline IOP readings were taken before topical administration of the CG (or PBS as control) and after half an hour (Zero time). […] At zero time one drop of 4AP (40 mg/ml, 30 μl) or IB-MECA (1 μM, 30 μl) was administered to both eyes of each rabbit IOP measurements were made at different times as indicated in each experiment. In the experiments for which the IOP was elevated for several hours, 4AP was added every 1.5 hours or IB-MECA every 2 hours. […] Each experiment was repeated two or three times with similar results. In all cases the figures depict the average effect on IOP (i.e for four or six eyes) compared to control ±SEM. Where error bars are not seen in the figures, the errors are smaller than the symbols used. Significance of differences from the control was calculated by the unpaired Students t-test (p values), p values <0.05 were considered significant. Corneal thickness (μm) was measured using an ultrasonic pachymeter (Sonogage pachometer, Cleveland, USA), before and during the experiment with CG and 4AP treatments. The values represent averages of three independent measurements for each eye.

[1] = system: purified α2β1FXYD1 complexes of Na,K-ATPase; experiment: Dissociation of cardiac glycosides from the α2β1 isoform complex
Description: Since the principal isoform in NPE cells is α2 and dissociation from the pump is expected to affect the duration of the effects on IOP, the dissociation rates of different cardiac glycosides from the purified α2β1 isoform were compared.
Purified α2β1FXYD1 complexes (0.3-0.5 mg/ml) were incubated for 30 minutes at 37° C. in a medium containing ATP, 1 mM; NaCl 100 mM; MgCl2, 4 mM Histidine.HCl 25 mM pH 7.4 without (Control) or with 1 μM of different cardiac glycosides. The enzyme solutions were then diluted 100-fold into a medium containing 100 mM NaCl, 5 mM KCl, 1 mM EDTA (Tris), 0.005 mg/ml C12E8, 0.01 mg/ml SOPS, and 0.001 mg/ml cholesterol and incubated at 37° C. for different lengths of time. Aliquots were removed at different times and Na,K-ATPase activity was measured in triplicate over 0.5 minutes (digoxigenin) or 2 minutes (other cardiac glycosides) in the standard activity medium containing 200 μM ATP. The activity of test samples was divided by the activity of the control samples and the time-course for reversal of inhibition was analyzed by fitting the data to the function vt=v∞e^−kt+c. Normalized curves for comparison of different experiments (e.g. as in FIG. 9) were obtained by subtracting the constant value c from each value of the activity and re-fitting the ratio vt/v∞=1−e^−kt.

[2] = system: intra-ocular pressure (IOP) of rabbits; experiment: 4-aminopyridine (4AP)-induced ocular hypertension in rabbits; assay type: in vivo, New Zealand white rabbits; details: for Effect on 4AP-induced rise in IOP: 1 drop topically 30 minutes prior to 4AP
Description: Intra-ocular pressure in rabbits was measured using of a “Reichert Model 30™ Pneumatonometer” after anesthetizing the cornea with local anesthetic.
Since the IOP reflects a balance of the inflow and outflow of aqueous humour, reduction of the increased 4AP-induced inflow of aqueous humour by cardiac glycosides should prevent the increase in IOP. Thus, the standard experimental design to test effects of cardiac glycosides involved topical application of the compounds (1 drop in each eye) 30 minutes prior to application of 4AP and measurement of IOP every 30 minutes over five hours. […] Each experiment was done three times, but the figures depict a representative experiment using a different rabbit for each concentration of the cardiac glycoside.
DGlyN or DMe (0.1 or 1 mM) were applied one hour after the first application of 4AP, which was added every two hours.
New Zealand white rabbits (3-3.5 kg) about 1 year old, of either sex, were housed individually in separate cages in animal room conditions on a reversed, 12-hour dark/light cycle. For the experiments the animals were transferred to rabbit restrainers in a quiet and calm atmosphere (FIG. 1). […] Animal care and treatment were subject to the approval of the institutional committee for animal experiments, Weizmann Institute IACUC permission (no 04270911-2).
IOP (mm Hg) of rabbits was measured using a calibrated Pneumatonometer (Model 30, Reichert technologies, FIG. 1). A local anesthetic Oxybuprocaine HCl (0.4%, 25 μl) was applied to each cornea about a minute before IOP measurements. Two baseline IOP readings were taken before topical administration of the CG (or PBS as control) and after half an hour (Zero time). […] At zero time one drop of 4AP (40 mg/ml, 30 μl) or IB-MECA (1 μM, 30 μl) was administered to both eyes of each rabbit IOP measurements were made at different times as indicated in each experiment. In the experiments for which the IOP was elevated for several hours, 4AP was added every […] or IB-MECA every 2 hours. […] In all cases the figures depict the average effect on IOP (i.e for four or six eyes) compared to control ±SEM. […] Significance of differences from the control was calculated by the unpaired Students t-test (p values), p values <0.05 were considered significant. Corneal thickness (μm) was measured using an ultrasonic pachymeter (Sonogage pachometer, Cleveland, USA), before and during the experiment with CG and 4AP treatments. The values represent averages of three independent measurements for each eye.

[3] = system: Na,K-ATPase isoforms (α1β1, α2β1, α3β1); details: membranes; cited from earlier work

| Structure (SMILES) | Redness or local irritation in conjunctiva or cornea (cornea of rabbits) | t1/2 ± SEM (dissociation) [1] | k ± SEM (rate of dissociation) ([1]; α2β1 isoform complex, 37° C.) | Effect on 4AP-induced rise in IOP ([2]; 0.25 mM) | Effect on 4AP-induced rise in IOP ([2]; 1 mM) | Time IOP is maintained at the low level ([2]; 1 mM, single drop, 4AP every two hours) | Isoform selectivity of KD (in words) [3] |
| --- | --- | --- | --- | --- | --- | --- | --- |
| C[C@H]1O[C@@H](O[C@H]2[C@@H](O)C[C@H](O[C@H]3[C@@H](O)C[C@H](O[C@H]4CC[C@@]5(C)[C@H](CC[C@@H]6[C@@H]5C[C@@H](O)[C@]5(C)[C@@H](C7=CC(=O)OC7)CC[C@]65O)C4)O[C@@H]3C)O[C@@H]2C)C[C@H](O)[C@@H]1O [Digoxin, digoxin, reference compound] | neither redness nor local irritation were observed | 47.5 ± 5.05 min | 0.015 ± 0.001, 4 min^−1 | poorly effective | able to prevent the 4AP-induced rise in IOP | 1 h | – |
| C[C@]12CC[C@H](O)C[C@H]1CC[C@@H]1[C@@H]2CC[C@]2(C)[C@@H](C3=CC(=O)OC3)CC[C@]12O [digitoxgenin] | – | – | – | – | – | – | no isoform selectivity |
